Data reported in patent US4255183A, “Substituted phenyl urea and herbicides for use in paddy field” (Hokko Chemical Industry Co., Ltd., priority 1977, dated 1981).
Like-named read-outs stand apart in the source and are kept apart here.

Key:
[1] = Acute oral toxicity; conditions: in vivo, SD-strain rat
Description: Acute oral toxicity LD50 value of the compound of the invention measured on SD-strain rat is more than 2,000 mg/Kg for any of the trans-form, cis-form and a mixture thereof in equal amount and further acute fish toxicity TLm value (as defined by Official Standard issued from Ministry of Agriculture & Forestry) measured on young carp is more than 20 ppm for any of the above compounds.

[2] = test system: Umbrella plant; assay: Test Example 5: Wagner pot test, herbicidal effect on umbrella plant; type: in vivo; conditions: 20 days after application
Description: (§1) In a 1/7500 are Wagner pot, sieved paddy field soil (alluvial soil) was charged. Thereafter, in the center portion of the pot, 2 roots of paddy rice (Asahi species) at the 2- to 3-leaf stage were transplanted and 20 seeds of Bulrush per pot were seeded in the surface of the above soil. The pot was submerged at the depth of about 2 cm. The other Dopatrium junceum and umbrella plant were generated naturally. After seeding, when each of the weeds reached the same leaf age as defined in Table 5 given herein, a predetermined concentration of the emulsion prepared according to Example 4 was applied dropwise on the surface of the pot. The test was carried out by repeating the same test three times per area and the results were determined 20 days after the application of the chemicals with regard to the herbicidal effect and chemical injury on paddy rice on the basis of the evaluation index as shown below.
(§2) As the comparative chemicals Molinate, Benthiocarb and DCMU, those commercially available were used.
(§3) In the above table, the inhibition rate was calculated according to the method as described in Test Example 1.

[3] = test system: Echinochloa crus-galli var. oryzicola; assay: Test Example 4: field test in submerged directly seeded paddy field, Echinochloa crus-galli var. oryzicola; type: in vivo; conditions: Echinochloa crus-galli, 504 h; 300 g/10 are, emulsion, 2- to 3-leaf stage, 21 days after application; read-out: Inhibition (%) of E. crus-galli var. oryzicola
Description: (§4) In a Wagner pot of 1/500 are, paddy field soil (alluvial soil) was placed and 50 seeds of Echinochloa crus-galli var. oryzicola and 30 seeds of paddy rice were seeded in the surface layer of said soil and the submerging depth was kept at about 1 cm. When Echinochloa crus-galli var. oryzicola reached at the one leaf stage and 5-leaf stage, the emulsion of a predetermined concentration, prepared according to Example 4 was added dropwise. After 30 days from the treatment with the chemical, dry weights of Echinochloa crus-galli var. oryzicola and paddy rice were measured and the inhibition rate was calculated with reference to untreated area. [formula]
(§5) In a 10 m^2 paddy field, 30 g of Echinochloa crus-galli var. oryzicola seeds were seeded at the time of puddling and the depth of submerging was kept at 3-5 cm. 3 Days after the puddling, 50 g of paddy rice at the emergence stage (Asahi species) were seeded. When Echinochloa crus-galli var. oryzicola and paddy rice reached a 2- to 3-leaf stage, a predetermined dose of the emulsion prepared according to Example 4 was applied uniformly by means of a manual spraying machine. Test results were examined 21 days after the application of the chemicals in the similar manner as in Test Example 1.
(§6) The comparative chemical 1 used was that commercially available and the comparative chemical 2 used was prepared according to Example 4.

[4] = test system: Dopatrium junceum; assay: Test Example 5: Wagner pot test, herbicidal effect on Dopatrium junceum; type: in vivo
Description: as §1, §2, §3

[5] = test system: Echinochloa crus-galli var. oryzicola; assay: Test Example 1: pot test on selectivity, inhibition of Echinochloa crus-galli var. oryzicola; type: in vivo; conditions: for inhibition at 750 g/ha / inhibition at 1500 g/ha / inhibition at 3000 g/ha / inhibition at 6000 g/ha / inhibition at 9000 g/ha: Echinochloa crus-galli, 720 h; for inhibition at 1500 g/ha: 150 g/10 are; for inhibition at 3000 g/ha: 300 g/10 are; for inhibition at 6000 g/ha: 600 g/10 are; for inhibition at 9000 g/ha: 900 g/10 are
Method in brief: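 Inhibition rate was calculated from weed and rice dry weight relative to untreated pots, measured 30 days after treatment. The emulsion, at predetermined concentrations, was applied dropwise to flooded (~1 cm) paddy-soil pots sown with Echinochloa crus-galli var. oryzicola and rice, at the weed's one-leaf and five-leaf stages.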

[6] = test system: paddy rice; assay: Test Example 1: pot test on selectivity, inhibition of paddy rice; type: in vivo; conditions: for Inhibition (%) by treatment at 1-leaf stage, paddy rice / Inhibition (%) by treatment at 5-leaf stage, paddy rice / inhibition at 750 g/ha / inhibition at 1500 g/ha / inhibition at 3000 g/ha / inhibition at 6000 g/ha / inhibition at 9000 g/ha: dry weight 30 days after treatment; for inhibition at 750 g/ha / inhibition at 1500 g/ha / inhibition at 3000 g/ha / inhibition at 6000 g/ha / inhibition at 9000 g/ha: Oryza sativa, 720 h
Method in brief: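 Alluvial paddy soil in pots sown with Echinochloa crus-galli var. oryzicola (50 seeds) and paddy rice (30 seeds), submerged about 1 cm. Dry weights taken 30 days after chemical treatment; inhibition rate calculated relative to untreated area.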

[7] = test system: paddy rice; assay: whole plant or invertebrate; type: in vivo, paddy rice (Asahi species); conditions: Oryza sativa, 720 h, granule, 30 days; for inhibition at 1000 g/ha: 100 g/10 are; for inhibition at 3000 g/ha: 300 g/10 are; for inhibition at 9000 g/ha: 900 g/10 are
Method in brief: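 Barnyardgrass seeded in flooded alluvial paddy soil (~3 cm water) in concrete pots, with 2.5-leaf Asahi rice transplanted before weed emergence. Granules applied at weed 1-leaf or 5-leaf stage. Dry weights measured 30 days after treatment; inhibition rate calculated versus untreated area.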

[8] = test system: paddy rice; assay: Test Example 4: field test in submerged directly seeded paddy field, paddy rice; type: in vivo, paddy rice (Asahi species); conditions: Oryza sativa, 504 h; 300 g/10 are, emulsion, 2- to 3-leaf stage, 21 days after application
Description: as §4, §5, §6

[9] = 300 g/10a, leaf age 2 (first group of columns)
[10] = 300 g/10a, leaf age 2 (second group of columns)
[11] = 600 g/10a, leaf age 2 (first group of columns)
[12] = 600 g/10a, leaf age 2 (second group of columns)
[13] = 300 g/10a, leaf age 2, 20 days after application
[14] = 300 g/10a, leaf age 3, 20 days after application
[15] = 600 g/10a, leaf age 2, 20 days after application
[16] = 600 g/10a, leaf age 3, 20 days after application
[17] = rice at 3.5 leaves stage, read-out: Inhibition (%) by treatment at 1-leaf stage of E. crus-galli var. oryzicola, paddy rice
[18] = rice at 7 leaves stage, read-out: Inhibition (%) by treatment at 5-leaf stage of E. crus-galli var. oryzicola, paddy rice
[19] = 1-leaf stage, dry weight 30 days after treatment, read-out: Inhibition (%) by treatment at 1-leaf stage, E. crus-galli var. oryzicola
[20] = 5-leaf stage, dry weight 30 days after treatment, read-out: Inhibition (%) by treatment at 5-leaf stage, E. crus-galli var. oryzicola
[21] = trans-form, cis-form and mixtures compared

CC=CCOc1ccc(NC(=O)N(C)C)cc1 [Mixture of trans- and cis-forms 1:1]
LD50 [1]: > 2000 mg/kg | Weed kill degree, Umbrella plant [2, 9]: 5 (100) | Weed kill degree, Umbrella plant [2, 10]: 5 (100) | Weed kill degree, Umbrella plant [2, 11]: 5 (100) | Weed kill degree, Umbrella plant [2, 12]: 5 (100) | inhibition at 3000 g/ha [3]: 100% | Weed kill degree, Dopatrium junceum [4, 13]: 5 (100) | Weed kill degree, Dopatrium junceum [4, 14]: 5 (100) | Weed kill degree, Dopatrium junceum [4, 15]: 5 (100) | Weed kill degree, Dopatrium junceum [4, 16]: 5 (100) | Inhibition (%) by treatment at 1-leaf stage, E. crus-galli var. oryzicola ([5]; 75 g/10 are, 1-leaf stage, dry weight 30 days after treatment): 96% | Inhibition (%) by treatment at 5-leaf stage, E. crus-galli var. oryzicola ([5]; 75 g/10 are, 5-leaf stage, dry weight 30 days after treatment): 83% | Inhibition (%) by treatment at 1-leaf stage, paddy rice ([6]; 75 g/10 are, 1-leaf stage): 0% | Inhibition (%) by treatment at 5-leaf stage, paddy rice ([6]; 75 g/10 are, 5-leaf stage): 0% | Inhibition (%) by treatment at 1-leaf stage, paddy rice ([6]; 150 g/10 are, 1-leaf stage): 0% | Inhibition (%) by treatment at 5-leaf stage, paddy rice ([6]; 150 g/10 are, 5-leaf stage): 0% | Inhibition (%) by treatment at 1-leaf stage, paddy rice ([6]; 300 g/10 are, 1-leaf stage): 0% | Inhibition (%) by treatment at 5-leaf stage, paddy rice ([6]; 300 g/10 are, 5-leaf stage): 0% | Inhibition (%) by treatment at 1-leaf stage, paddy rice ([6]; 600 g/10 are, 1-leaf stage): 0% | Inhibition (%) by treatment at 5-leaf stage, paddy rice ([6]; 600 g/10 are, 5-leaf stage): 0% | Inhibition (%) by treatment at 1-leaf stage, paddy rice ([6]; 900 g/10 are, 1-leaf stage): 3% | Inhibition (%) by treatment at 5-leaf stage, paddy rice ([6]; 900 g/10 are, 5-leaf stage): 0% | inhibition at 1000 g/ha [7, 17]: 0% | inhibition at 1000 g/ha [7, 18]: 0% | inhibition at 3000 g/ha [7, 17]: 0% | inhibition at 3000 g/ha [7, 18]: 0% | inhibition at 9000 g/ha [7, 17]: 0% | inhibition at 9000 g/ha [7, 18]: 0% | inhibition at 3000 g/ha [8]: 0%

C/C=C\COc1ccc(NC(=O)N(C)C)cc1 [cis-form, 3-(4-cis-crotyloxyphenyl)-1,1-dimethyl urea]
LD50 [1]: > 2000 mg/kg | Weed kill degree, Umbrella plant [2, 9]: 5 (100) | Weed kill degree, Umbrella plant [2, 10]: 5 (100) | Weed kill degree, Umbrella plant [2, 11]: 5 (100) | Weed kill degree, Umbrella plant [2, 12]: 5 (100) | inhibition at 3000 g/ha [3]: 100% | Weed kill degree, Dopatrium junceum [4, 13]: 5 (100) | Weed kill degree, Dopatrium junceum [4, 14]: 5 (100) | Weed kill degree, Dopatrium junceum [4, 15]: 5 (100) | Weed kill degree, Dopatrium junceum [4, 16]: 5 (100) | inhibition at 750 g/ha ([5]; 75 g/10 are, 1-leaf stage, dry weight 30 days after treatment, read-out: Inhibition (%) by treatment at 1-leaf stage, E. crus-galli var. oryzicola): 95% | inhibition at 750 g/ha ([5]; 75 g/10 are, 5-leaf stage, dry weight 30 days after treatment, read-out: Inhibition (%) by treatment at 5-leaf stage, E. crus-galli var. oryzicola): 82% | inhibition at 1500 g/ha [5, 19]: 100% | inhibition at 1500 g/ha [5, 20]: 100% | inhibition at 3000 g/ha [5, 19]: 100% | inhibition at 3000 g/ha [5, 20]: 100% | inhibition at 6000 g/ha [5, 19]: 100% | inhibition at 6000 g/ha [5, 20]: 100% | inhibition at 9000 g/ha [5, 19]: 100% | inhibition at 9000 g/ha [5, 20]: 100% | activity for killing Echinochloa spp. [5, 21]: equivalent | inhibition at 750 g/ha ([6]; 75 g/10 are, 1-leaf stage, read-out: Inhibition (%) by treatment at 1-leaf stage, paddy rice): 0% | inhibition at 750 g/ha ([6]; 75 g/10 are, 5-leaf stage, read-out: Inhibition (%) by treatment at 5-leaf stage, paddy rice): 0% | inhibition at 1500 g/ha ([6]; 150 g/10 are, 1-leaf stage, read-out: Inhibition (%) by treatment at 1-leaf stage, paddy rice): 0% | inhibition at 1500 g/ha ([6]; 150 g/10 are, 5-leaf stage, read-out: Inhibition (%) by treatment at 5-leaf stage, paddy rice): 0% | inhibition at 3000 g/ha ([6]; 300 g/10 are, 1-leaf stage, read-out: Inhibition (%) by treatment at 1-leaf stage, paddy rice): 0% | inhibition at 3000 g/ha ([6]; 300 g/10 are, 5-leaf stage, read-out: Inhibition (%) by treatment at 5-leaf stage, paddy rice): 0% | inhibition at 6000 g/ha ([6]; 600 g/10 are, 1-leaf stage, read-out: Inhibition (%) by treatment at 1-leaf stage, paddy rice): 0% | inhibition at 6000 g/ha ([6]; 600 g/10 are, 5-leaf stage, read-out: Inhibition (%) by treatment at 5-leaf stage, paddy rice): 0% | inhibition at 9000 g/ha ([6]; 900 g/10 are, 1-leaf stage, read-out: Inhibition (%) by treatment at 1-leaf stage, paddy rice): 3% | inhibition at 9000 g/ha ([6]; 900 g/10 are, 5-leaf stage, read-out: Inhibition (%) by treatment at 5-leaf stage, paddy rice): 0% | selectivity to paddy rice [6, 21]: equivalent | inhibition at 1000 g/ha [7, 17]: 0% | inhibition at 1000 g/ha [7, 18]: 0% | inhibition at 3000 g/ha [7, 17]: 0% | inhibition at 3000 g/ha [7, 18]: 0% | inhibition at 9000 g/ha [7, 17]: 0% | inhibition at 9000 g/ha [7, 18]: 0% | inhibition at 3000 g/ha [8]: 0%
